Data taken from ChEMBL document CHEMBL4411291, “Synthesis and anti-tumor activity of imidazopyrazines as TAK1 inhibitors” (Eur J Med Chem, 2019).

What was measured:
[1] = molecular target: T1, Mitogen-activated protein kinase kinase kinase 7 (Homo sapiens) (UniProt O43318); test: Inhibition of TAK1 (unknown origin) at 0.1 uM by LanthaScreen Eu kinase binding assay relative to control
T1 sequence (whole entry): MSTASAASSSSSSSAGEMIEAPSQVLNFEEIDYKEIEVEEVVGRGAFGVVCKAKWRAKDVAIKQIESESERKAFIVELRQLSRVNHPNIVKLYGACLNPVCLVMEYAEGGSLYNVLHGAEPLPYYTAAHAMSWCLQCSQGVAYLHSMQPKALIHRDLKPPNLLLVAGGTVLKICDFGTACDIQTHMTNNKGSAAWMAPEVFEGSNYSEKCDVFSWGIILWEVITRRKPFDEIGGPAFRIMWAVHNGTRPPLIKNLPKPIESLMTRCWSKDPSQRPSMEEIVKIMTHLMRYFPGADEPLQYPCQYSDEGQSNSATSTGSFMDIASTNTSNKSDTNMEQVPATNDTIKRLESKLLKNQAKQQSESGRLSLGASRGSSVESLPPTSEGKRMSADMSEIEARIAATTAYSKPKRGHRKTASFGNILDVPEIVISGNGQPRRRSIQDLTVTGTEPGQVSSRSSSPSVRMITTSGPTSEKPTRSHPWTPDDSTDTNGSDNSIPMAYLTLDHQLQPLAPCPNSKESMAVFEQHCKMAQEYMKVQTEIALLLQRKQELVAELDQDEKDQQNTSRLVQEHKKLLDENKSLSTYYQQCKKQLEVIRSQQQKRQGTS

[2] = molecular target: T1, Mitogen-activated protein kinase kinase kinase 7 (Homo sapiens); test: Inhibition of TAK1 (unknown origin) at 1 uM by LanthaScreen Eu kinase binding assay relative to control

SMILES | inhibition [1] [%] | inhibition [2] [%]
Cc1cc(NC(=O)Nc2cc(C(C)(C)C)nn2-c2cccc(C#N)c2)ccc1-c1cnc(NC2CC2)c2ncnn12 | 36 | 92
Cc1cc(NC(=O)Nc2cc(C(C)(C)C)nn2-c2ccc(C#N)cc2)ccc1-c1cnc(NC2CC2)c2nccn12 | 19 | 84
Cc1cc(NC(=O)Nc2cc(C(C)(C)C)nn2-c2cccnc2)ccc1-c1cnc(NC2CC2)c2nccn12 | 43 | 89
Cc1cc(NC(=O)Nc2cc(C(C)(C)C)nn2-c2cccc(F)c2)ccc1-c1cnc(NC2CC2)c2nccn12 | 34 | 94
Cc1cc(C(=O)Nc2cc(C(C)(C)C)nn2-c2ccccc2)ccc1Oc1cnc(NC2CC2)c2nccn12 | 4 | 3
Cc1cc(NC(=O)Nc2cc(C(C)(C)C)nn2-c2ccccc2)ccc1-c1cnc(NC2CC2)c2ncnn12 | 24 | 80

Continued, values first:

inhibition [1] [%] | inhibition [2] [%] | SMILES
18 | 74 | Cc1cc(NC(=O)Nc2cc(C(C)(C)C)nn2-c2cccc(Cl)c2)ccc1-c1cnc(NC2CC2)c2ncnn12
7 | 91 | Cc1ccc(-n2nc(C(C)(C)C)cc2NC(=O)Nc2ccc(-c3cnc(NC4CC4)c4nccn34)c(C)c2)cc1
16 | 84 | Cc1cc(NC(=O)Nc2cc(C(C)(C)C)nn2-c2cccc(Cl)c2)ccc1-c1cnc(NC2CC2)c2nccn12
